Reference: patent US20240174649A1, “CULLIN-RING E3 UBIQUITIN LIGASE 4 INHIBITOR COMPOUNDS AND METHODS OF THEIR USE” (ICAHN SCHOOL OF MEDICINE AT MOUNT SINAI, priority 2021, published 2024)

What was measured:
E3 CRL4^CRBN = E3 CRL4^CRBN (Homo sapiens (Human), UniProt Q13619); assay: Lenalidomide-dependent ubiquitination of CK1α by CRL4^CRBN; format: biochemical
Experimental: To prepare Flag-CK1α as a substrate for ubiquitination experiments described in FIGS. 2A-E, the expression vector (purchased from Addgene) was introduced to HEK-293T cells by transfection using Lipofectamine RNAIMAX (ThermoFisher) according to manufacturer's protocols. Cell extracts were prepared and the concentration of Flag-CK1α was determined using immunoblot analysis with purified GST-CK1α (Sigma) as a standard. Typically, 50-100 μl of extracts was used to attach to ˜15 μl of M2 beads (Sigma) at 4° C. for 2 hours. Unbound materials were removed by washing (first three times with a washing buffer containing 50 mM Tris-HCl, pH8.0, 1% Triton X-100, 0.5M NaCl, and then twice with buffer A plus 50 mM NaCl) and the resulting beads were used in the ubiquitination assay (15 μl). The concentration of Flag-CK1α was determined to be ˜100 nM.
Immobilized, Flag-CK1α-containing beads were initially incubated with a reaction mixture (10 μl) containing 50 mM Tris-HCl (pH7.4), 0.5 mM DTT, 0.1 mg/ml of BSA, 5 mM MgCl2, 100 nM CRL4^CRBN, 1 μM Lenalidomide (Selleckchem), 1 μM Fluorescein-Ub, 100 nM E1, and 1 μM UbcH5c. ATP (20 mM) was added last to initiate the reaction. The reaction was incubated on a thermomixer (1,300 rpm; Eppendorf) at 37° C. for 5 min. The resulting beads were then added with a second reaction mixture (5 μl) containing 50 mM Tris-HCl (pH7.4), 0.5 mM DTT, 0.1 mg/ml of BSA, 5 mM MgCl2, 4 μM I-Ub-Q31C/K48R, and 1 μM Cdc34b, in the presence or absence of E3 inhibitors as specified. The reaction was incubated on a thermomixer at 37° C. for times as indicated. The concentrations of enzymes, Ubs, and compounds stated above were adjusted based on a final volume of 15 μl. The beads were then washed using conditions as described above. Materials eluted from the beads were separated by 4-20% SDS-PAGE followed by detection with fluorescence scanning (Typhoon 9500) or immunoblot using anti-CK1α antibody (Abcam). […]

ROC1-CUL1 = ROC1-CUL1 (Homo sapiens (Human), UniProt Q13616); assay: Gel-based di-Ub synthesis; format: biochemical
Experimental: For the experiment shown in FIG. 7 and FIGS. 8A-B, the di-Ub synthesis reaction was carried out by preassembling the donor Ub mix. The donor Ub mixture (5 μl) contained 50 mM Tris HCl (pH 7.4), 5 mM MgCl2, 2 mM ATP, 0.5 mM DTT, 0.1 mg/mL BSA, 1 μM Ub-NC-I555, 0.1 μM E1, and 2 μM Cdc34b. The reaction was incubated for 5 min at 37° C. Compounds, in the amounts indicated, were added followed by the addition of ROC1-CUL1 (or related E3 subcomplex) in amounts as indicated and 10 μM PK-Ub (1-74) (as a receptor). The final volume was adjusted to 10 μl. The reaction was incubated for 10 min at 37° C.
For the experiments shown in FIG. 8C and FIG. 9, the reaction was assembled in a 10-μl mixture containing 50 mM Tris HCl (pH 7.4), 5 mM MgCl2, 0.5 mM DTT, 0.1 mg/mL BSA, 0.05 μM Ub-NC-I555, 2,5 μM PK-Ub (1-74), 0.1 μM E1, 1 μM Cdc34b, and 80 nM ROC1-CUL1 with or without compound. The reaction was initiated by the addition of 2 mM ATP. The products were separated by 4-20% SDS/PAGE and were visualized and quantified on a Typhoon FLA 9500 laser scanner (GE).

cancer cells = assay: Apoptosis, Annexin V flow cytometry; format: cell-based
Procedure, shortened: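 5×10^4 cells were seeded 24 h before treatment, then cultured with compound for 48 h. Pelleted cells were washed in Annexin V binding buffer (HEPES pH 7.4, with CaCl2) and stained in the dark with Annexin V-FITC (2 μg/ml) for 5 min. Apoptosis was read by flow cytometry.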

CACO-2 = CACO-2 permeability; format: in vitro ADME; conditions: for PGP substrate: PGP-transporter (MDR1)
Experimental: ADME studies on compounds #33-11 and KH-4-43 for “absorption, distribution, metabolism, and excretion” were carried out at CRO, BioDuro. Kinetic solubility, plasma and microsome stability in rat, mouse and human, as well as Caco-2 Permeability were examined.

Mouse i.p. PK = format: in vivo
[1] = End-of-study PK in MV4-11 xenograft mice; format: in vivo; conditions: mouse
Experimental: Tumor tissues were weighed at the end of study. At the endpoint, 100 μl blood and tumors from Group 3 (G3) and Group 4 (G4) were collected as shown in the Table 3, for further pharmacokinetics or biomarker analysis. Plasma were isolated from all blood samples.

MV4-11 tumors = assay: AML MV4-11 subcutaneous xenograft; conditions: for tumor inhibition value: IP

E3 CRL4^CRBN, sequence (Q13619 whole entry): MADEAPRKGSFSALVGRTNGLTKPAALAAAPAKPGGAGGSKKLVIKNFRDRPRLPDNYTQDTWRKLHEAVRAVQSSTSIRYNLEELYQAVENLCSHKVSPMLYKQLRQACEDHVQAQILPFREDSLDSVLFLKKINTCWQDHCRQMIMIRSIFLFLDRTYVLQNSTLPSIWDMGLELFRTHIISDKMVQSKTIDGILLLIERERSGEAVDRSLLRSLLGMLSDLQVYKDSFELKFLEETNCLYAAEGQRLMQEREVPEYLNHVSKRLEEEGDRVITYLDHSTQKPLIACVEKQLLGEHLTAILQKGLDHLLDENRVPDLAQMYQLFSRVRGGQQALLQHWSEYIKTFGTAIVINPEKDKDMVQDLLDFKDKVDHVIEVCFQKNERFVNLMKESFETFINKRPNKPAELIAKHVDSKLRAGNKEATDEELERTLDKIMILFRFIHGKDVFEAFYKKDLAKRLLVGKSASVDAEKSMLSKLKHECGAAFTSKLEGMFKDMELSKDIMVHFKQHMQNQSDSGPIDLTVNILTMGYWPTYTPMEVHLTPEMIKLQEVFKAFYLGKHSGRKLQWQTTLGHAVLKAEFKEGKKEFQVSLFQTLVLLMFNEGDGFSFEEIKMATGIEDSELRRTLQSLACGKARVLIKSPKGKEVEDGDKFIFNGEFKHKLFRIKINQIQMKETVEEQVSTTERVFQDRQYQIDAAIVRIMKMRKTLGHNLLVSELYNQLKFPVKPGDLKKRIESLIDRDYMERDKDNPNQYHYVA
E3 CRL4^CRBN, sequence (P62877 whole entry partner): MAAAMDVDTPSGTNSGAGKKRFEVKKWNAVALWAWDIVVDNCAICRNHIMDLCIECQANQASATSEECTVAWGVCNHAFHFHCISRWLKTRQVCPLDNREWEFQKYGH
E3 CRL4^CRBN, sequence (Q16531 whole entry partner): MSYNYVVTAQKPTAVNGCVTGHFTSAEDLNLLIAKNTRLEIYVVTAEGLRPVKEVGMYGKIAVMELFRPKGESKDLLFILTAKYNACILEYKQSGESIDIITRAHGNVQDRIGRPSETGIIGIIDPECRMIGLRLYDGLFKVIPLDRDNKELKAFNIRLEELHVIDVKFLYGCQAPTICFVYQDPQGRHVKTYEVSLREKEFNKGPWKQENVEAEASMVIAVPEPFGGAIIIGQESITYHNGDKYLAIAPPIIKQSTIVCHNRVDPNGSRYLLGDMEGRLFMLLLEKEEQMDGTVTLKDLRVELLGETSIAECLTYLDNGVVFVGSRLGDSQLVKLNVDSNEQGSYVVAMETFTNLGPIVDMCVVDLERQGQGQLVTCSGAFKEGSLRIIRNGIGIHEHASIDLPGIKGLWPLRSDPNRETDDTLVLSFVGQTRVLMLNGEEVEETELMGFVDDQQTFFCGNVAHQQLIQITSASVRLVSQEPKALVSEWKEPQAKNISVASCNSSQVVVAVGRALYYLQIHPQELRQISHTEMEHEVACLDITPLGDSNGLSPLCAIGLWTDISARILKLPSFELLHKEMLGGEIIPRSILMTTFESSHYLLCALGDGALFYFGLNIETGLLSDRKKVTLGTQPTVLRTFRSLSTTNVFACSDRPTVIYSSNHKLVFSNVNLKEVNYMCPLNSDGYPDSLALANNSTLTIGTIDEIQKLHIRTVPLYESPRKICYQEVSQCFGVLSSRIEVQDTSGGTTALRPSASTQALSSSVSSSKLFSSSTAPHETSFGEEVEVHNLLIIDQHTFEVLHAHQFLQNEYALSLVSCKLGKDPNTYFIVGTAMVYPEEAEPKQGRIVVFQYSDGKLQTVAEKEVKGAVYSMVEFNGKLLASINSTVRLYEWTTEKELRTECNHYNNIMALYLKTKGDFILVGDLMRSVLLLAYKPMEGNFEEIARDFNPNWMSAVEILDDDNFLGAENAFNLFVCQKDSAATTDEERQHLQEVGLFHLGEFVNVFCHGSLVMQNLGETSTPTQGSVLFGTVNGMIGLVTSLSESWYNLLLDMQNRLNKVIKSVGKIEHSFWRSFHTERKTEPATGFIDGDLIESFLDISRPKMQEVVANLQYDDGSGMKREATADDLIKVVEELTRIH
E3 CRL4^CRBN, sequence (Q96SW2 whole entry partner): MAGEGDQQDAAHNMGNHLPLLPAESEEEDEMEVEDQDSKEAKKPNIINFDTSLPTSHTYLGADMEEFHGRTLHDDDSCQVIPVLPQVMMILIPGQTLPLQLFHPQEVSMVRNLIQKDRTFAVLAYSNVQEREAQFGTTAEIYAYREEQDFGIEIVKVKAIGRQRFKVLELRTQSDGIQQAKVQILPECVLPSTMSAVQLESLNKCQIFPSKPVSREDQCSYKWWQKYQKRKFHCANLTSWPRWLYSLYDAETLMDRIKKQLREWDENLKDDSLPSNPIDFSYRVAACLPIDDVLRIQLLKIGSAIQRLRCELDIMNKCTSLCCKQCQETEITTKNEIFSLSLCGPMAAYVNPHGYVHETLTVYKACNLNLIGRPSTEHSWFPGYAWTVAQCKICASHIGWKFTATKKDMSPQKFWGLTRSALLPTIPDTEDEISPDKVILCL
ROC1-CUL1, sequence (Q13616 whole entry): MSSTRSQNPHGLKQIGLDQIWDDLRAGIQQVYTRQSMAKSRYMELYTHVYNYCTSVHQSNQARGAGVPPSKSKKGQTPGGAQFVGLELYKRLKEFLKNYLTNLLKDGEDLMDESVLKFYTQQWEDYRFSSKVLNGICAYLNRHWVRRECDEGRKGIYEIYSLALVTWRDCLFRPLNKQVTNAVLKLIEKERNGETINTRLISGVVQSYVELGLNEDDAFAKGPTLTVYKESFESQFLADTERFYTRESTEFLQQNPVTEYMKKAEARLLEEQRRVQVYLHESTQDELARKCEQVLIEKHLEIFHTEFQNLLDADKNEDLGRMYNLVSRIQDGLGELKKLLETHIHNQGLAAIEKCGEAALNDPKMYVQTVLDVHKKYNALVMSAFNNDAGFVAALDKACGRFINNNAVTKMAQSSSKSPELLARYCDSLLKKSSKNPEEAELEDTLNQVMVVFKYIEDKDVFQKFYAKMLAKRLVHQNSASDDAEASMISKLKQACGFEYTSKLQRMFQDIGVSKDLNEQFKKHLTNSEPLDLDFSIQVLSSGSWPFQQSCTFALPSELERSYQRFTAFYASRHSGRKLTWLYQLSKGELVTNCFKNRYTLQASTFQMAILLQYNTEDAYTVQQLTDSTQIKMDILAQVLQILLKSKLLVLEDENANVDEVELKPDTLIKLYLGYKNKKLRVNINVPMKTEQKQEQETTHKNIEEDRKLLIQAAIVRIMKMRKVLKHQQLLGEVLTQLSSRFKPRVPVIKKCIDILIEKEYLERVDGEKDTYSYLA
ROC1-CUL1, sequence (P62877 whole entry partner): as the sequence (P62877 whole entry partner) above

O=c1c(-c2cnn(-c3ccccc3)c2)c(C(F)(F)F)oc2c(O)c(O)ccc12 [#33-11, 7,8-dihydroxy-3-(1-phenyl-1H-pyrazol-4-yl)-2-(trifluoromethyl)-4H-chromen-4-one]
inhibition of ubiquitination of CK1α (E3 CRL4^CRBN; at 30 μM): Significant inhibitory effects | level of di-Ub product (ROC1-CUL1; up to 150 μM): remained almost unchanged | EC50 (cancer cells; Table 6): 13 µM | A:B/B:A (CACO-2): 1.95 | Permeability (CACO-2): high | PGP substrate (CACO-2): probable | Ctrough (Mouse i.p. PK; i.p. 100 mg/kg in DMSO): 160 nM | T1/2 (Mouse i.p. PK; i.p. 100 mg/kg in DMSO): 7.2 h | AUC (Mouse i.p. PK; i.p. 100 mg/kg in DMSO, 0-24 hr): 19.6 μM-hr | AUC ([1]; tumor, mice dosed with #33-11, read-out: AUC in tumors): 0.75 µM·h | tumor growth inhibition (MV4-11 tumors; earlier AML MV4-11 xenograft model study): did not reach statistically significant levels

O=c1c(-c2cnn(-c3ccc(Cl)cc3)c2)c(C(F)(F)F)oc2c(O)c(O)ccc12 [KH-4-43, 3-(1-(4-chlorophenyl)-1H-pyrazol-4-yl)-7,8-dihydroxy-2-(trifluoromethyl)-4H-chromen-4-one]
dose range inhibiting ubiquitination by CRL4 (E3 CRL4^CRBN): ~10 µM | discharge of Cdc34-Ub and production of Ub2 by ROC1-CUL1 (ROC1-CUL1): no effect | EC50 (cancer cells; Table 1): 4 µM | EC50 (cancer cells; Table 6): 8 µM | Permeability (CACO-2): highly permeable and high | PGP substrate (CACO-2): not a substrate | 24 hr C-trough concentration (Mouse i.p. PK; i.p. 100 mg/kg): 89 nM | tolerability (Mouse i.p. PK; i.p. 100 mg/kg): well tolerated | Ctrough (Mouse i.p. PK; i.p. 100 mg/kg in DMSO): 90 nM | AUC ([1]; BALB/c nude, plasma, ip, G3, 50 mg/kg Q2D, read-out: AUC over 24 hours in plasma): ~3.3 µM·h | AUC ([1]; BALB/c nude, tumor, ip, G4, 50 mg/kg QD, read-out: AUC over 24 hours in tumor): ~4.7 µM·h | tumor AUC higher than with #33-11 ([1]; in vivo): 6 fold | tumor inhibition value (MV4-11 tumors; G2, 25 mg/kg, Q2D): 18.60% | tumor inhibition value (MV4-11 tumors; G3, 50 mg/kg, Q2D): 25.15% | tumor inhibition value (MV4-11 tumors; G4, 50 mg/kg, QD): 38.90% | safety by body weight loss guideline (>20% toxic) (MV4-11 tumors; tested dose levels 25 and 50 mg/kg): judged to be safe
